PubChem BioAssay AID248 (DTP/NCI, 2004)
Values joined by “and” are separate entries in the source; they are usually repeats but may differ in a detail not shown here. Equal entries are not always repeated. Inconclusive results and toxic doses are left out. No stated cut-off is given here; in the data, active means T/C of 150% or more; inactive means T/C below 125%.

Test system: L1210 leukemia ip in BDF1 mice, survival T/C
Test: NCI In Vivo Anticancer Drug Screen. Data for tumor model L1210 Leukemia (intraperitoneal) in B6D2F1 (BDF1) mice
Settings: endpoint: mean survival time, higher = longer survival
Outline: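 In this screen, tumor-bearing mice given compound are compared to those given vehicle, and their survival values are reported as a treated-to-control quotient.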

[1] = dose: 25.0 mg/kg/injection, schedule: Q04DX003 (ip), vehicle: Klucel (hydroxypropylcellulose) (HPC)
[2] = dose: 100.0 mg/kg/injection, schedule: Q04DX003 (ip), vehicle: Klucel (hydroxypropylcellulose) (HPC)
[3] = dose: 100.0 mg/kg/injection, schedule: Q01DX001 (ip), vehicle: saline
[4] = dose: 100.0 mg/kg/injection, schedule: Q04DX003 (ip), vehicle: saline
[5] = dose: 200.0 mg/kg/injection, schedule: Q01DX001 (ip), vehicle: saline
[6] = dose: 200.0 mg/kg/injection, schedule: Q04DX003 (ip), vehicle: saline
[7] = dose: 100.0 mg/kg/injection, schedule: Q01DX009 (ip), vehicle: saline with Tween-80
[8] = dose: 100.0 mg/kg/injection, schedule: Q04DX003 (ip), vehicle: saline with Tween-80
[9] = dose: 200.0 mg/kg/injection, schedule: Q04DX003 (ip), vehicle: saline with Tween-80
[10] = dose: 400.0 mg/kg/injection, schedule: Q04DX003 (ip), vehicle: saline with Tween-80
[11] = dose: 400.0 mg/kg/injection, schedule: Q01DX001 (ip), vehicle: saline
[12] = dose: 200.0 mg/kg/injection, schedule: Q01DX009 (ip), vehicle: saline with Tween-80
[13] = dose: 400.0 mg/kg/injection, schedule: Q01DX009 (ip), vehicle: saline with Tween-80
[14] = dose: 200.0 mg/kg/injection, schedule: Q04DX003 (ip), vehicle: Klucel (hydroxypropylcellulose) (HPC)
[15] = dose: 400.0 mg/kg/injection, schedule: Q04DX003 (ip), vehicle: Klucel (hydroxypropylcellulose) (HPC)

Measured: T/C

CC(=O)c1ccc(NC(=S)Nc2ccc(C(C)=O)cc2)cc1
inactive: dose: 5.0 mg/kg/injection, schedule: Q01DX009 (ip), vehicle: saline with Tween-80 87 % of control | dose: 10.0 mg/kg/injection, schedule: Q01DX009 (ip), vehicle: saline with Tween-80 103 % of control | dose: 20.0 mg/kg/injection, schedule: Q01DX009 (ip), vehicle: saline with Tween-80 98 % of control and 115 % of control | dose: 40.0 mg/kg/injection, schedule: Q01DX009 (ip), vehicle: saline with Tween-80 97 % of control and 102 % of control | dose: 80.0 mg/kg/injection, schedule: Q01DX009 (ip), vehicle: saline with Tween-80 86 % of control | dose: 84.0 mg/kg/injection, schedule: Q01DX009 (ip), vehicle: saline with Tween-80 98 % of control | dose: 320.0 mg/kg/injection, schedule: Q01DX009 (ip), vehicle: saline with Tween-80 102 % of control

CC1=C(/C=C/C(C)=C/C=C/C(C)=C/C=O)C(C)(C)CCC1
inactive: dose: 50.0 mg/kg/injection, schedule: Q01DX009 (ip), vehicle: steriod suspending solution 89 % of control and 95 % of control | dose: 100.0 mg/kg/injection, schedule: Q01DX009 (ip), vehicle: steriod suspending solution 92 % of control | dose: 200.0 mg/kg/injection, schedule: Q01DX001 (sc), vehicle: steriod suspending solution 96 % of control and 95 % of control | dose: 400.0 mg/kg/injection, schedule: Q01DX001 (sc), vehicle: steriod suspending solution 96 % of control

Cn1cc(Br)c2ccccc2c1=O
inactive: [1] 87 % of control | dose: 50.0 mg/kg/injection, schedule: Q04DX003 (ip), vehicle: Klucel (hydroxypropylcellulose) (HPC) 101 % of control | [2] 94 % of control and 124 % of control

O=C(Nc1cccc(F)c1)Oc1ccc(OCc2ccccc2)cc1
inactive: dose: 100.0 mg/kg/injection, schedule: Q04DX002 (ip), vehicle: saline 101 % of control | dose: 200.0 mg/kg/injection, schedule: Q04DX002 (ip), vehicle: saline 90 % of control | dose: 400.0 mg/kg/injection, schedule: Q04DX002 (ip), vehicle: saline 90 % of control

CCCCOc1c(Cl)c(Cl)c(O)c(Cl)c1Cl
inactive: dose: 50.0 mg/kg/injection, schedule: Q01DX009 (ip), vehicle: acetone 101 % of control | dose: 50.0 mg/kg/injection, schedule: Q04DX003 (ip), vehicle: saline 97 % of control | [3] 93 % of control | dose: 100.0 mg/kg/injection, schedule: Q01DX009 (ip), vehicle: acetone 93 % of control | [4] 94 % of control | [5] 88 % of control | [6] 87 % of control

CC(C)=NNC(=O)c1ccc[n+](Cc2ccccc2)c1
inactive: dose: 75.0 mg/kg/injection, schedule: Q01DX001 (ip), vehicle: saline 102 % of control | dose: 150.0 mg/kg/injection, schedule: Q01DX001 (ip), vehicle: saline 98 % of control | dose: 300.0 mg/kg/injection, schedule: Q01DX001 (ip), vehicle: saline 105 % of control

COc1ccc2[nH]c(-c3ccccc3)c(-c3ccccc3)c2c1
inactive: [7] 90 % of control | [8] 89 % of control | [9] 87 % of control | [10] 92 % of control

O=C(O)/C=C\C=C\c1ccccc1
inactive: [3] 89 % of control | [5] 94 % of control | [11] 96 % of control

C=C1OC(=O)OC1(C)CC(OC)OC (stereo unspecified)
inactive: [7] 101 % of control | [8] 94 % of control | [12] 95 % of control | [9] 92 % of control | [13] 98 % of control | [10] 92 % of control

NC(=O)C(=O)NO
inactive: [3] 97 % of control | [5] 106 % of control | [11] 105 % of control

Cc1ccc(C(C)(Cl)/N=N\C(C)(Cl)c2ccc([N+](=O)[O-])cc2)cc1 (stereo unspecified)
inactive: [8] 90 % of control | [9] 96 % of control | [10] 98 % of control

CC(C)=CCCC(O)C1CCC2C3CCC4CCCCC4(C)C3CCC12C (stereo unspecified)
inactive: dose: 100.0 mg/kg/injection, schedule: Q04DX002 (ip), vehicle: DMSO 96 % of control | dose: 200.0 mg/kg/injection, schedule: Q04DX002 (ip), vehicle: DMSO 96 % of control | dose: 400.0 mg/kg/injection, schedule: Q04DX002 (ip), vehicle: DMSO 92 % of control

Cn1nccc2c(=O)n(C)c(=O)nc1-2
inactive: dose: 100.0 mg/kg/injection, schedule: Q04DX002 (ip), vehicle: Klucel (hydroxypropylcellulose) (HPC) 97 % of control | dose: 200.0 mg/kg/injection, schedule: Q04DX002 (ip), vehicle: Klucel (hydroxypropylcellulose) (HPC) 95 % of control

CC(C)(C)C1CCC(OS(C)(=O)=O)C(OS(C)(=O)=O)C1 (stereo unspecified)
inactive: dose: 12.5 mg/kg/injection, schedule: Q04DX003 (ip), vehicle: Klucel (hydroxypropylcellulose) (HPC) 102 % of control | [1] 100 % of control

Nc1nc(N)c2nonc2n1
inactive: dose: 12.5 mg/kg/injection, schedule: Q01DX005 (ip), vehicle: other 97 % of control | dose: 25.0 mg/kg/injection, schedule: Q01DX005 (ip), vehicle: other 90 % of control | dose: 50.0 mg/kg/injection, schedule: Q01DX005 (ip), vehicle: other 92 % of control | dose: 100.0 mg/kg/injection, schedule: Q01DX005 (ip), vehicle: other 89 % of control | dose: 200.0 mg/kg/injection, schedule: Q01DX005 (ip), vehicle: other 92 % of control

CC(C)c1sc([S-])n[n+]1-c1ccccc1
inactive: [3] 104 % of control | [4] 101 % of control | [5] 101 % of control | [6] 95 % of control | [11] 91 % of control | dose: 400.0 mg/kg/injection, schedule: Q04DX003 (ip), vehicle: saline 101 % of control

CCN(CC)Cc1c(C)[nH]c2c(OC)cccc2c1=O
inactive: dose: 25.0 mg/kg/injection, schedule: Q04DX003 (ip), vehicle: water 103 % of control | dose: 50.0 mg/kg/injection, schedule: Q04DX003 (ip), vehicle: water 97 % of control | dose: 100.0 mg/kg/injection, schedule: Q01DX009 (ip), vehicle: water 101 % of control | dose: 100.0 mg/kg/injection, schedule: Q04DX003 (ip), vehicle: water 100 % of control and 102 % of control

O=C1C/C(=C\c2ccccc2O)C(=O)c2ccccc21
inactive: dose: 10.0 mg/kg/injection, schedule: Q04DX002 (ip), vehicle: Klucel (hydroxypropylcellulose) (HPC) 101 % of control | dose: 20.0 mg/kg/injection, schedule: Q04DX002 (ip), vehicle: Klucel (hydroxypropylcellulose) (HPC) 93 % of control | dose: 40.0 mg/kg/injection, schedule: Q04DX002 (ip), vehicle: Klucel (hydroxypropylcellulose) (HPC) 101 % of control

O=C(Nc1ccc(Cl)cc1[N+](=O)[O-])OCC1CC2C=CC1C2 (stereo unspecified)
inactive: dose: 100.0 mg/kg/injection, schedule: Q01DX001 (ip), vehicle: saline with Tween-80 94 % of control and 87 % of control | [7] 94 % of control and 98 % of control | dose: 100.0 mg/kg/injection, schedule: Q04DX002 (ip), vehicle: saline with Tween-80 96 % of control and 97 % of control | [8] 94 % of control and 98 % of control | dose: 200.0 mg/kg/injection, schedule: Q01DX001 (ip), vehicle: saline with Tween-80 93 % of control and 102 % of control | [12] 100 % of control | dose: 200.0 mg/kg/injection, schedule: Q04DX002 (ip), vehicle: saline with Tween-80 97 % of control and 100 % of control | [9] 98 % of control and 101 % of control | dose: 400.0 mg/kg/injection, schedule: Q01DX001 (ip), vehicle: saline with Tween-80 97 % of control and 101 % of control | [13] 100 % of control | dose: 400.0 mg/kg/injection, schedule: Q04DX002 (ip), vehicle: saline with Tween-80 93 % of control and 87 % of control | [10] 100 % of control and 91 % of control

O=C(CS(=O)(=O)Cc1ccccc1)c1ccccc1
inactive: [2] 98 % of control | [14] 98 % of control | [15] 101 % of control

CCCCCCCCCCCCCCCC1CCCC(C)N1 (stereo unspecified)
inactive: dose: 6.25 mg/kg/injection, schedule: Q04DX002 (ip), vehicle: saline with Tween-80 104 % of control | dose: 12.5 mg/kg/injection, schedule: Q04DX002 (ip), vehicle: saline with Tween-80 96 % of control | dose: 25.0 mg/kg/injection, schedule: Q04DX002 (ip), vehicle: saline with Tween-80 100 % of control

Cc1cccc(NC(=O)CCl)c1C
inactive: dose: 100.0 mg/kg/injection, schedule: Q01DX009 (ip), vehicle: Klucel (hydroxypropylcellulose) (HPC) 100 % of control | [2] 100 % of control | dose: 200.0 mg/kg/injection, schedule: Q01DX009 (ip), vehicle: Klucel (hydroxypropylcellulose) (HPC) 87 % of control | [14] 100 % of control

CCOC(OCC)C(O)CNc1ccc([N+](=O)[O-])cc1[N+](=O)[O-] (stereo unspecified)
inactive: [2] 98 % of control | [14] 101 % of control | [15] 103 % of control
